Source: ChEMBL document CHEMBL1201862, “PubChem BioAssay data set” (2004)
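Values below derive from 48-hour exposures of cells grown in 96-well plates, with endpoints linearly interpolated between the two concentrations bracketing the appropriate inhibition level. At the GI50, growth is halved.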 Calls of active or inactive are those of the source. Rule as the data show it: active = GI50 up to about 1.1 µM and inactive = higher.

Key:
Assay in all cases: NCI tumour cell line growth inhibition, 48 h
[1] = test system: OVCAR-5
[2] = test system: 786-0
[3] = test system: IGROV-1
[4] = test system: SN12C
[5] = test system: COLO 205
[6] = test system: Malme-3M
[7] = test system: ACHN
[8] = test system: HOP-62
[9] = test system: SK-MEL-5
[10] = test system: UO-31
[11] = test system: UACC-257
[12] = test system: NCI-H460
[13] = test system: HT-29
[14] = test system: SK-OV-3
[15] = test system: SR
[16] = test system: CCRF-CEM
[17] = test system: DMS-114
[18] = test system: EKVX
[19] = test system: PC-3
[20] = test system: NCI/ADR-RES

Measured: GI50

CN(C)CC1CCCC(CN(C)C)C1=NOC(=O)c1ccccc1 (stereo not given)
inactive: [1] > 100 µM | [2] > 100 µM | [3] > 100 µM | [4] > 100 µM | [5] > 100 µM | [6] > 100 µM | [7] > 100 µM | [8] > 100 µM | [9] > 100 µM | [10] > 100 µM | [11] > 100 µM | [12] > 100 µM | [13] > 100 µM | [14] > 100 µM | [15] > 100 µM | [16] > 100 µM | [17] > 100 µM | [18] > 100 µM

O=C1C=CC=CC2CC=C[C@@H](O)C12 (stereo not given in full)
inactive: [1] 30.5 µM | [2] 17.2 µM | [3] 39.6 µM | [4] 22.4 µM | [5] 19.6 µM | [6] 21.3 µM | [7] 17.3 µM | [8] 45.7 µM | [9] 18 µM | [10] 16.4 µM | [11] 14 µM | [12] 18.4 µM | [13] 16.8 µM | [14] 69.7 µM | [15] 18.8 µM | [16] 15.3 µM | [17] 18.1 µM | [18] 24.5 µM

CCN(CC)c1ccc(/N=C2/C=CC(=O)c3ncccc32)c(C)c1
inactive: [1] 12 µM | [2] 5.02 µM | [3] 6.65 µM | [4] 7.38 µM | [5] 2.18 µM | [6] 3.82 µM | [7] 3.92 µM | [8] 20.2 µM | [9] 5.53 µM | [10] 16.6 µM | [11] 4.38 µM | [12] 6.43 µM | [13] 15.1 µM | [14] 20 µM | [15] 2.65 µM | [16] 2.09 µM | [17] 3.9 µM | [18] 16.6 µM

CN(C)CCNC(=O)c1cccc2ccc(-c3ccc(-c4ccccc4)cc3)nc12
inactive: [1] 3.92 µM | [2] 1.79 µM | [3] 12.6 µM | [4] 6.59 µM | [5] 1.6 µM | [6] 1.97 µM | [7] 5.47 µM | [8] 3.3 µM | [9] 1.72 µM | [10] 11.7 µM | [11] 1.86 µM | [12] 1.61 µM | [13] 1.75 µM | [14] 17 µM | [15] 2.3 µM | [16] 2.72 µM | [17] 1.7 µM | [18] 8.17 µM

CSc1nc2[nH]c(=O)c(C)nc2c(=O)[nH]1
inactive: [1] > 100 µM | [2] > 100 µM | [3] > 100 µM | [4] > 100 µM | [5] > 100 µM | [6] > 100 µM | [7] > 100 µM | [8] > 100 µM | [9] > 100 µM | [10] > 100 µM | [11] > 100 µM | [12] > 100 µM | [13] > 100 µM | [14] > 100 µM | [15] > 100 µM | [16] > 100 µM | [17] > 100 µM | [18] > 100 µM

CCc1nc2cc(/N=N/c3c(O)ccc4ccccc34)ccc2[nH]1
inactive: [19] 14.6 µM | [1] 17.5 µM | [2] 16.1 µM | [3] 19.6 µM | [4] 20.5 µM | [5] 21.2 µM | [6] 18.3 µM | [7] 17.1 µM | [8] 21.1 µM | [9] 18.5 µM | [10] 18.8 µM | [11] 14.5 µM | [12] 16.1 µM | [13] 19.4 µM | [14] 24.7 µM | [15] 2.14 µM | [16] 3.47 µM | [17] 17.3 µM | [18] 19.1 µM | [20] 22.3 µM
